We go through one compound from patent US20190365720A1, “Novel formulations of amidine substituted beta-lactam compounds on the basis of modified cyclodextrins and acidifying agents, their preparation and use as antimicrobial pharmaceutical compositions” (AiCuris Anti-Infective Cures GmbH, priority 2016, published 2019).

≈ marks a conversion by molar mass, not a printed value. Entries after “also recorded” stand apart in the source; their conditions may differ.

Data set [1] can be described thus: Physical / in-use stability of solutions at room temperature. In kind it is physicochemical.
The nature of data set [2]: pH-dependent solubility of compound (I). In kind it is physicochemical. The conditions noted are these: 25 °C. As for the experimental part: The solubility profile of the API of a compound of formula (I) was measured at two different pH values (see […]): FIG. 23: pH solubility profile in pure water at 25° C.
Data set [3] in a line: Fraction bound to plasma protein in mice. In kind it is in vitro ADME. The following applies: mouse, read-out: Fraction bound to plasma protein (fp) (converted).
Data set [4] in a line: Calculated fraction of compound (I) bound to SBE-β-CD in blood plasma after i.v. administration. Further details: species or system mice. The following applies: after i.v. administration at time zero. As for the experimental part: On average, mice have 79 ml of blood per kg of body weight (see https://en.wikipedia.org/wiki/Blood_volume; Oct. 3, 2016). If the blood plasma is 55% of the total blood volume then mice have around 43 ml of plasma per kg of body weight. The dose was 25 mg/kg (0.037 mmoles/kg) of compound (I) and 156.5 mg/kg ([…]) of SBE-β-CD. After mixing with the blood plasma the initial plasma concentration should be 8.6.10^−4 M of compound (I) and 1.7.10^−3 M of SBE-β-CD.

The test system of the next data set is female rabbits. The experiment in a line: Local tolerance after single intravenous infusion into the marginal ear vein. It is filed as in vivo, rabbit. As for the experimental part: The aim of this example was to test the local tolerance of a compound (I) containing aqueous injectable solution in accordance with the invention in female rabbits following a single intravenous infusion for 30 or 60 minutes. Each animal received 15 mL of a formulation containing 5 mg compound (I) as API per mL into the marginal vein of the right ear. Two groups of 9 female animals, each, were employed with infusion durations of 30 or 60 minutes per dose. In addition, a placebo solution as vehicle control, was administered in the same volume and duration on the left ear of each animal. 24, 72 and 96 hours after administration respectively 3 animals per group were sacrificed and the injection sites were examined macro- and microscopically. The application formulations were freshly prepared on the administration day. The compound (I) and the placebo were dissolved in the vehicles to the appropriate concentrations: 15 mL of WFI were added to 1 compound (I) drug product vial and shaken well. The solution volume expanded to approximately 17 mL. The final concentration was approximately 29 mg/mL. Withdraw 17 mL from 100 mL of lactated Ringer's solution. Then add the reconstituted solution (approx. 17 mL from step 1). Mix well. The final concentration was approximately […]. Species: rabbit; Strain: New Zealand White Selection of species: the rabbit is a commonly used species for local tolerance studies. Number and sex of animals: 18 female animals Age (at start of administration): approx. 3 months Body weight (at start of administration): 2.31 to 2.73 kg Acclimatisation period: at least 20 acclimatisation days; 4 test days Routes of administration: single intravenous infusion into the marginal vein of the ear. Selection of routes of administration: according to clinical use via intravenous route. The compound (I) solutions were administered to the right ear, and the placebo solutions were administered to the left ear of each animal. Local reactions were inspected macroscopically 1 […] and 96 h after injection. The reactions were scored on the basis of DRAIZE, Appraisal of the Safety of Chemicals in Food, Drugs and Cosmetics, Association of Food and Drug Officials of the United States, Austin, Tex., 1959. The animals scheduled for the respective dissection day were sacrificed with pentobarbitol injection into an ear vein (not used for infusion). All animals were subjected to gross examination including the opening of the cranial, thoracic and abdominal cavities and the examination of the major organs. Particular attention was paid to the appropriate injection sites (test and control items). All abnormalities were recorded. Tissue abnormalities would have been preserved in 10% neutral buffered formalin. Histopathological examination was performed on treated infusion sites (compound (I) and placebo, 2 sites per animal) plus an untreated adjacent site from all animals. Tissue samples were fixed in 10% buffered formalin. Paraffin sections (3 to 5 μm) were prepared, stained with hematoxylin-eosin, and examined histologically.

The nature of data set [5]: Solubility of compound (I) in selected solvent systems by UPLC. In kind it is physicochemical. The following applies: aqueous with cosolvent or surfactant or cyclodextrin, thermodynamic from solid, 25° C. The method, then:
To determine the solubility of a compound (I) in selected solvent systems in accordance with the invention, UPLC was used, and physicochemical properties such as pH and physical appearance were monitored. The solubility of compound (I) in solution was determined at 25° C. separately in following solvent systems at three time points (at 2 hours, at 6 hours and at 24 hours) in duplicates. 1) Hydroxypropyl-β-cyclodextrin solution (30% w/v) 2) Hydroxypropyl-β-cyclodextrin (30% w/v) solution containing 2% CA 3) Solvent mixture of PEG400 (40%)+2% CA (60%) To the vial for each time point 3 mL of individual solvent were added followed by addition of the weighed amount of compound (I) (100 mg). This system was kept for stirring on a magnetic stirrer at 700 rpm. At each time point, the solution was filtered through a […] syringe filter and analysed for the content of compound (I) using UPLC after suitable dilutions.

In data set [1], `CC1(C)[C@H](NC(=O)/C(=N\O[C@@H](COc2ccc(C(=N)N[C@@H]3CCCNC3)cc2)C(=O)O)c2csc(N)n2)C(=O)N1OS(=O)(=O)O` [compound (I)] came in with a Stability after reconstitution of 6 h. Moreover, the solubility (commonly the concentration that dissolves in the medium under given conditions) is 1000 µg/mL (≈ 1.5 mM) in data set [2] (pure water (pH-adjusted, no cyclodextrin), pH 7.4, aqueous buffer); 10000 µg/mL (≈ 15 mM) in data set [2] (pure water, aqueous buffer, pH 4.0); 16200 µg/mL in data set [5] (30% HP-β-CD plus 2% CA); 2700 µg/mL (≈ 4.04 mM) in data set [5] (hydroxypropyl-β-cyclodextrin solution (30% w/v), 30% HP-β-CD as sole excipient). In addition, in data set [3], the fraction unbound is 0.779. In addition, the “Fraction of compound (I) free or bound to plasma proteins” value in data set [4] is reported as “about 80%”. Further, the “Fraction of compound (I) bound to SBE-β-CD” value in data set [4] (25 mg/kg with 156.5 mg/kg SBE-β-CD, plasma pH 7.4) is listed as “about 22%”. The Body weight entry in the data set with female rabbits (15 mL of 5 mg/mL i.v. infusion) is given as “No influence on the body weight”. Further, in the data set on female rabbits (15 mL of 5 mg/mL i.v. infusion), the Clinical signs entry is “No clinical signs of toxicity”. The Necropsy findings result in the data set on female rabbits (15 mL of 5 mg/mL i.v. infusion, 30 or 60 min) is recorded as “did not reveal any changes”. The “Macroscopic changes at infusion sites” value with female rabbits (15 mL of 5 mg/mL i.v. infusion, 30 or 60 min, inspected 1 h to 96 h) was “did not reveal any changes”. The “Microscopic (histopathological) changes at infusion sites” value with female rabbits (15 mL of 5 mg/mL i.v. infusion, 30 or 60 min, versus vehicle control sites) was “did not reveal any compound (I)-related changes; also recorded: did not cause any compound (I)-related histopathological changes”. In addition, in the data set with female rabbits (overall conclusion), the “Compatibility following intravenous infusion” value is “very good compatibility”.
